In patent publication US20110130355A1, “USE OF SOPHORICOSIDE IN THE MANUFACTURE OF MEDICAMENTS” (priority 2008, published 2011):
Marks after values point to notes of the source that are not given here.

Columns and labels:
[1] = system: uterus; experiment: Wet weights of uteri of ovariectomized rats; format: in vivo, SD rats; details: OVX rats, 11 weeks
Description: OVX group and the intervention groups: The rats were anesthetized by intraperitoneal injection of 1% pentobarbital sodium at 5 ml/kg. After the onset of anesthesia, the rats were positioned face-down and dehaired at the third lumbar vertebra below the costal arch. The skin was sanitized by benzalkonium bromide and incised by about 1 cm. The subcutaneous tissue and the fascia were incised, and the muscle was bluntly separated. The peritoneum was carefully cut open. White fat was lifted carefully by using tissue forceps inserted to the abdominal cavity through the incision. The fat was gently turned over to expose the quincuncial ovary, which was then ligated by sterile 1 silk thread. The ovary was separated by cutting the oviduct by ophthalmic scissors. After hemostasis by compression, the fat was returned into the abdominal cavity. Subsequently, an incision was made on the opposite side and the same procedures were carried out to excise the ovary on the opposite side. The peritoneum, the fascia, the subcutaneous tissue, and the skin were sutured one by one. The incisions were sanitized.
The vehicle was 1% sodium carboxymethylcellulose (CMC-Na). The sham group and OVX group were administered the vehicle by gavage.
Intervention groups were administered the following formulations of active agents dissolved in the vehicle: […]
The rats were sacrificed by cervical dislocation after 11 weeks. Uteri were removed, weighted, and fixed in 4% paraformaldehyde (PFA). The whole right knee joints were removed and fixed in 4% PFA.
The rats were weighted, and then sacrificed. The uteri were removed from the rats and determined for wet weights.
Statistical analysis of variance was performed. The variance of the wet weights internal to the SHAM group was high, possibly attributing to different stages of menstrual cycle. In all groups, the body weights before the treatment were not statistically different from those after the treatment. The wet weights of uteri obtained from the ovariectomized groups were statistically different from those obtained from the SHAM group (p<0.01), indicating a successful ovariectomy.

[2] = system: CTX-II; experiment: Determination of the urinary CTX-II content (competitive ELISA, creatinine corrected); format: in vivo, SD rats; details: OVX rats, urine at 3, 5, 7 weeks, FIG. 2, vs. model group
Description: Urine samples (1˜1.5 ml) were collected in eppendorf tubes from the rats before modeling and at 3 weeks, 5 weeks and 7 weeks by using metabolic cages, and stored at −20° C.
1. The concentrations of CTX-II in the urine samples obtained in accordance with example 1 were determined by the Urine Pre-clinical (PC) Cartilaps ELISA kit and the competitive enzyme linked immunosorbent assay (ELISA). The concentration of creatinine (referred to as “Crea” hereinafter) in the urine samples were determined by the multifunctional biochemistry analyzer (Beckman coulter, DXC800). The CTX-II contents were corrected by the following formula:
Corrected CTX-II ([…])=CTX-II (μg/L)/Crea (mmol/L) […]
12) The optical densities (ODs) were determined by a microplate reader (Molecular Devices Corporation, BD03315) at 450 nm and 650 nm, and a 4-parameter logistic regression curve was thereby obtained, so as to read the concentration of each sample.
4. Determination of Crea in the urine samples (mmol/L): The Crea concentration is determined by using a multiple biochemistry analyzer (Beckman coulter, DXC800) by the Lab Department of Shanghai Ruij in Hospital.
The CTX-II baseline ratios were calculated as the above formula, and the results were shown in FIG. 2, wherein ** indicates p<0.01 vs. the model group at the same time point, and * indicates p<0.05 vs. the model group at the same time point.

[3] = system: ER-α; experiment: Immunohistochemical staining of the estrogen receptor of articular chondrocytes, percentage of positive cells; format: in vivo, SD rats; details: OVX rats, 11 weeks; for ER-α positive cells in the articular cartilage, micrograph in words: FIG. 7; for positive ratio for ER-α expression in the articular chondrocytes, Total: whole knee joint
Description: 2) Elimination of endogenous peroxidases: The sections were treated with 3% H2O2-methanol for 10 minutes and washed by PBS for 5 minutes×3;
3) Blocking of Antigen: The sections were treated with 0.3% bovine serum albumin (BSA) for 30 minutes;
The sections were incubated at 4° C. overnight and then washed by PBS for 5 minutes×3;
5) Secondary antibody: After the addition of the biotinylated secondary antibody (1:200) the sections were incubated at 37° C. for 30 minutes and then washed by PBS for 5 minutes×3;
6) Addition of SABC (Streptavidin Biotin Complex): After the addition of SABC (1:300) the sections were incubated at 37° C. for 30 minutes and then washed by PBS for 5 minutes×3;
7) Visualization: 75 μl of 3,3′-diaminobenzidine (DAB) was added per section. After incubation for 3-6 minutes, the sections were observed by microscopy;
The average of the percentages for the four regions was regarded as the total positive cell percentage for the indicated knee joint, and the average of the percentages obtained from two persons was regarded as the final experimental result.
The positive cell percentage=number of the positive chondrocytes in the field/total number of the chondrocytes in the field×100%.

[4] = system: carrageenan-induced edema; details: in vivo; cited from earlier work
[5] = system: interleukin-5; details: cited from earlier work

Compound: O=c1c(-c2ccc(O[C@@H]3O[C@H](CO)[C@@H](O)[C@H](O)[C@H]3O)cc2)coc2cc(O)cc(O)c12 [HDA, 3-[4-(β-D-glucopyranosyl)-benzyl]5,7-dihydro-4H-1-benzopyran-4-one (4′,5,7-trihydroxylisoflavone-4′-D-glucoside)]
- Wet weight of uterus ([1]; sophoricoside 10 mg/kg/day): 0.143 ± 0.008 g
- Wet weight of uterus ([1]; sophoricoside 20 mg/kg/day): 0.129 ± 0.008 g
- Wet weight of uterus ([1]; sophoricoside 40 mg/kg/day): 0.162 ± 0.013 g
- Wet weight of uterus ([1]; sophoricoside 80 mg/kg/day): 0.166 ± 0.017 g
- metabolic peak of urinary CTX-II (ratio to baseline) shortly after ovariectomy ([2]; sophoricoside 40 mg/kg/day): also have this effect, but in a weaker manner
- metabolic peak of urinary CTX-II (ratio to baseline) shortly after ovariectomy ([2]; sophoricoside 80 mg/kg/day): significantly suppress the metabolic peak of CTX-II shortly after ovariectomy
- ER-α positive cells in the articular cartilage, micrograph in words ([3]; sophoricoside 10 mg/kg/day): ER-α positive cells within the superficial layer of articular cartilage were much less
- ER-α positive cells in the articular cartilage, micrograph in words ([3]; sophoricoside 20 mg/kg/day): ER-α positive cells within the superficial layer of articular cartilage were much less
- ER-α positive cells in the articular cartilage, micrograph in words ([3]; sophoricoside 80 mg/kg/day): more than the OVX group and similar to normal articular cartilage
- positive ratio for ER-α expression in the articular chondrocytes, Total ([3]; sophoricoside 10 mg/kg/day): 49.520 ± 1.815^□□ %
- positive ratio for ER-α expression in the articular chondrocytes, Total ([3]; sophoricoside 20 mg/kg/day): 58.624 ± 1.707**^□□ %
- positive ratio for ER-α expression in the articular chondrocytes, Total ([3]; sophoricoside 40 mg/kg/day): 65.074 ± 1.306**^□□ %
- positive ratio for ER-α expression in the articular chondrocytes, Total ([3]; sophoricoside 80 mg/kg/day): 77.730 ± 1.125**^□□ %
- carrageenan-induced edema [4]: inhibit
- inhibition of interleukin-5 [5]: inhibitor of interleukin-5
